From US20090269330A1, “FATTY ACID TRIGLYCERIDES FOR MAKING BIOCOMPATIBLE COATINGS” (ZISCOAT NV, priority 2006, published 2009)

Assay: In vitro drug release from enzymatically transesterified triglyceride coating on stainless steel samples
Assay type: physicochemical
Conditions: 5 weight % paclitaxel in enzymatically transesterified triglyceride coating; PBS with 0.02% (w/v) sodium azide, 37° C.; after 5 weeks; HPLC
Procedure: Transesterified triglyceride mixtures were made using the following procedure: • 30 weight % tristearin, 30 weight % triolein, 40 weight % trilinolein are put in a vacuum furnace at 70° C. during 1 hour • the mixture is stirred during 30 minutes at 75° C. • 1% of 1,3 specific lipase (lipozyme) is added to the mixture at 75° C. during 1 hour. • Filtration over Whatman no. 4 filter. The slip melting point of the resulting mixture was 60° C.
5 weight % of paclitaxel (taxol) and acetone were added to this triglyceride mixture, heated to 50° C. and stirred until homogeneous. Stainless steel samples were dipped into the solution followed by air-drying. The samples were put into 5 ml of release medium (PBS with 0.02% (w/v) sodium azide) at 37° C. and continuously shaken with a rocking table. At different time points, samples were put in a new vial with fresh release medium. The medium of the previous vials were analyzed with HPLC to determine the concentration of paclitaxel that was released. After the test, the remaining paclitaxel was liberated from the coating on the stainless steel samples by dissolving the coating in acetone at 50° C.

percentage of drug released from coating: 75%
Compound: CC(=O)O[C@H]1C(=O)[C@@]2(C)[C@H]([C@H](OC(=O)c3ccccc3)[C@]3(O)C[C@H](OC(=O)[C@H](O)[C@@H](NC(=O)c4ccccc4)c4ccccc4)C(C)=C1C3(C)C)[C@]1(OC(C)=O)CO[C@@H]1C[C@@H]2O [paclitaxel]
